Results from article PMC11449324, “Functional comparison of human and murine equilibrative nucleobase transporter 1” (PLOS ONE, 2024).

What was measured:
HEK293-EV cells = test: MTT cell viability assay, HEK293-EV; format: cell-based, human; conditions: 48 h; for EC50: Homo sapiens, first-phase EC50 where biphasic
Procedure: (§1) Transfected-HEK293, MOLT-4, and L1210 cells were seeded into 24-well plates at a density of 1.1x10^5 cells per well in complete culture medium. […] Medium containing no cells was used to determine spontaneous MTT reduction (background). In transfected-HEK293 cells, media was removed via a vacuum-powered aspirator and replaced with 150 μL of Dulbecco’s phosphate buffered saline (DPBS—137 mM NaCl, 2.7 mM KCl, 6.3 mM Na2HPO4, 1.5 mM KH2PO4, 0.5 mM MgCl2, 0.9 mM CaCl2, pH 7.4) containing MTT (1 mg/mL) for 90 minutes at 37°C. In MOLT-4 and L1210, cell suspension was transferred to 1.5 mL microcentrifuge tubes and centrifuged for 10 minutes at 3000 rcf. Following centrifugation, media was removed via gentle pipetting and replaced with 150 μL of DPBS containing MTT (1 mg/mL) for 90 minutes at 37°C. Microcentrifuge tubes were centrifuged again for 15 minutes at 23,500 rcf, and then DPBS containing MTT was removed via a vacuum-powered aspirator. The resultant formazan crystals were solubilized in 500 μL of DMSO and transferred to a 96-well plate in 200 μL duplicates. Absorbance was measured at 570 nm, in a SpectraMax® i3x Multi-Mode Detection Platform (Molecular Devices, San Jose, CA). After background subtraction, % cell viability was calculated as the ratio of absorbance in the presence of test compound to that measured with vehicle alone (X 100).

HEK293-hSLC43A3 cells = test: MTT cell viability assay, HEK293-hSLC43A3; format: cell-based, human; conditions: for EC50: Homo sapiens, first-phase EC50 where biphasic
Procedure: as §1

HEK293-mslc43a3 cells = test: MTT cell viability assay, HEK293-mslc43a3; format: cell-based, human; conditions: for EC50: Homo sapiens, first-phase EC50 where biphasic
Procedure: as §1

ENBT1 = conditions: previous findings ref 14; cited from earlier work
[1] = substrate: Sc1ncnc2nc[nH]c12; test: cells, lysate or membranes; conditions: pH 7.4
[2] = substrate: Nc1ncnc2nc[nH]c12; test: Radiolabelled substrate uptake (oil-stop, 2 s) in HEK293-mslc43a3 cells; format: cell-based, mouse; conditions: other: HEK293-mslc43a3 minus HEK293-EV, 2 seconds, room temperature, 10 μM dipyridamole; pH 7.4
Procedure: (§2) Harvested cells were suspended in nominally sodium-free N-methyl-D-glucamine (NMG) buffer (140 mM NMG, 5 mM KCl, 4.2 mM KHCO3, 0.36 mM K2HPO4, 0.44 mM KH2PO4, 0.5 mM MgCl2, 1.3 mM CaCl2, 10 mM HEPES, pH 7.4), to minimize potential contribution of sodium-dependent concentrative nucleoside transporter-mediated uptake. Additionally, cells were incubated for 15 minutes at room temperature with 10 μM dipyridamole (DY), an equilibrative nucleoside transporter (ENT) inhibitor, to block equilibrative nucleoside transporter–mediated uptake. The substrate uptake assay was initiated by adding 250 μL cell suspension to 250 μL [^3H] labeled substrate, layered over 21:4 silicone:mineral oil (200 μL) in 1.5 mL microcentrifuge tubes (conducted at room temperature). The uptake reaction was terminated after 2 seconds by centrifugation of the cells through the oil layer at ~10,000 g. […] The resulting cell pellet was digested in 250 μL 1 M NaOH overnight (~16 hours), with 220 μL aliquots of digested cells assessed for radioactive content using standard liquid scintillation counting techniques in a Beckman Coulter LS6500 scintillation system (Brea, CA).
(§3) In transfected-HEK293 cell lines, total uptake was defined as uptake of radiolabeled substrate in cells overexpressing recombinant hENBT1 or mENBT1. […] ENBT1-mediated uptake was calculated as total uptake minus the non-mediated uptake. […]

[3] = substrate: Nc1ncnc2nc[nH]c12; test: Radiolabelled substrate uptake (oil-stop, 2 s) in HEK293-hSLC43A3 cells; format: cell-based, human; conditions: other: HEK293-hSLC43A3 minus HEK293-EV, 2 seconds, room temperature, 10 μM dipyridamole; pH 7.4
Procedure: as §2, §3

[4] = other: HEK293-mslc43a3 minus HEK293-EV, 2 seconds, room temperature, 10 μM dipyridamole
[5] = other: HEK293-hSLC43A3 minus HEK293-EV, 2 seconds, room temperature, 10 μM dipyridamole

With `O=c1[nH]c(=S)c2[nH]c(=O)[nH]c2[nH]1` [6-TU, 6-Thiouric acid] the “effect on cell viability” value (HEK293-EV cells) was “minimal effect”, the “effect on cell viability” value (HEK293-hSLC43A3 cells; HEK293-hSLC43A3, 48 h, MTT) was “minimal effect” and the “effect on cell viability” value (HEK293-mslc43a3 cells; HEK293-mslc43a3, 48 h, MTT) was “minimal effect”.

In the case of `CSc1ncnc2nc[nH]c12` [6-MeMP, 6-Methylmercaptopurine], the “effect on 6-MP uptake by ENBT1” value (ENBT1) is given as “inhibited”, the EC50 (HEK293-EV cells) is given as 45 ± 7 µM and the EC50 (HEK293-hSLC43A3 cells; HEK293-hSLC43A3, 48 h, MTT) is given as 79 ± 2 µM. For the same molecule, the EC50 (HEK293-mslc43a3 cells; HEK293-mslc43a3, 48 h, MTT) was 42 ± 6 µM.

In the case of `Nc1nc2nc[nH]c2c(=S)[nH]1` [6-TG, 6-thioguanine], the “effect on 6-MP uptake by ENBT1” value (ENBT1) is listed as “competitively inhibits”, the EC50 (HEK293-EV cells) is listed as 16 ± 4.3 µM and the “shift in EC50 (increased sensitivity) relative to HEK293-EV cells” value (HEK293-hSLC43A3 cells; HEK293-hSLC43A3 vs HEK293-EV) is listed as 5 fold. The EC50 (HEK293-hSLC43A3 cells; HEK293-hSLC43A3, 48 h, MTT) was 3.4 ± 0.9 µM, the “shift in EC50 (increased sensitivity) relative to HEK293-EV cells” value (HEK293-mslc43a3 cells; HEK293-mslc43a3 vs HEK293-EV) was 5 fold and the EC50 (HEK293-mslc43a3 cells; HEK293-mslc43a3, 48 h, MTT) was 3.4 ± 1.1 µM.

B1: mENBT1 (slc43a3-encoded mouse ENBT1) (Mus musculus) (protein)
chain: MASKGLPLYLATLLTGLLECIGFAGVLFGWTSLLFVFKAENYFSEPCEQDCLLQSNVTGPSDLKAQDEKFSLIFTLASFMNNFMTFPTGYIFDRFKTTVARLIAIFFYTCATIIIAFTSANTAMLLFLAMPMLAVGGILFLITNLQIGNLFGKHRSTIITLYNGAFDSSSAVFLVIKLLYEQGISLRSSFIFMSVCSVWHIARTFLLMPKGHIPYPLPPNYSYGLCSRFGASKKENKAAEHETKELRSKECLPPKEENSGPEQQQQQEQQQQQQQQQEQHEQHSFRRCALSRRFILHVVWLSIIQLWHYLFIGTLNSLLTKLSGGDKVEVSAYTNAFAITQFFGVLCAPWNGLLMDRLKQKYQKAAKRTGSSSEAVALCSMVPSLALTSLLSLGFALCASIPVMQLQYATFILQVVSRSFLYGCNAAFLTLAFPSEHFGKLFGLVMALSAIVSLLQFPLFKVSPESNAVYVSMGLAIFLTLVHPFLVYRECRAEKTKSSVDA
notes: Oligonucleotides corresponding to the coding region of SLC43A3 (NM_001278201) or slc43a3 (NM_021398); expressed in transfected cells; HEK293-mslc43a3
Molecule B1 has a Km [1, 4] of 253 ± 39 µM, a Vmax [1, 4] of 144 ± 12 pmol/µL/s and a Km [2] of 86 ± 22 µM. It also gave a Vmax [2] of 62 ± 6 pmol/µL/s.

B2: endogenous ENBT1 expressed in L1210 cells (Mus musculus) (protein)
chain: B1 chain
In the case of B2, the Km ([1]; other: L1210, 2 seconds) is reported as 272 ± 91 µM.

B3: hENBT1 (SLC43A3-encoded human ENBT1) (Homo sapiens) (protein)
chain: MAGQGLPLHVATLLTGLLECLGFAGVLFGWPSLVFVFKNEDYFKDLCGPDAGPIGNATGQADCKAQDERFSLIFTLGSFMNNFMTFPTGYIFDRFKTTVARLIAIFFYTTATLIIAFTSAGSAVLLFLAMPMLTIGGILFLITNLQIGNLFGQHRSTIITLYNGAFDSSSAVFLIIKLLYEKGISLRASFIFISVCSTWHVARTFLLMPRGHIPYPLPPNYSYGLCPGNGTTKEEKETAEHENRELQSKEFLSAKEETPGAGQKQELRSFWSYAFSRRFAWHLVWLSVIQLWHYLFIGTLNSLLTNMAGGDMARVSTYTNAFAFTQFGVLCAPWNGLLMDRLKQKYQKEARKTGSSTLAVALCSTVPSLALTSLLCLGFALCASVPILPLQYLTFILQVISRSFLYGSNAAFLTLAFPSEHFGKLFGLVMALSAVVSLLQFPIFTLIKGSLQNDPFYVNVMFMLAILLTFFHPFLVYRECRTWKESPSAIA
notes: Oligonucleotides corresponding to the coding region of SLC43A3 (NM_001278201) or slc43a3 (NM_021398); expressed in transfected cells; HEK293-hSLC43A3
Molecule B3 has a Km [1, 5] of 269 ± 67 µM, a Vmax [1, 5] of 121 ± 16 pmol/µL/s and a Km [3] of 93 ± 24 µM. It also gave a Vmax [3] of 56 ± 6 pmol/µL/s.

B4: endogenous ENBT1 expressed in MOLT-4 cells (Homo sapiens) (protein)
chain: B3 chain
With B4 the Km ([1]; other: MOLT-4, 2 seconds) was 115 ± 68 µM.
